In ChEMBL document CHEMBL1201862, “PubChem BioAssay data set” (2004):
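Grown in 96-well plates, cells were treated for 48 hours with each compound at five concentrations. Insufficient inhibition: endpoint recorded as highest concentration tested. GI50 = concentration required for 50% inhibition of growth.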 Calls of active or inactive are those of the source. Rule as the data show it: active = GI50 up to about 1.1 µM and inactive = higher.

Key:
Assay in all cases: inhibition of tumour cell growth, NCI panel, 48 h
[1] = test system: 786-0
[2] = test system: A498
[3] = test system: A549
[4] = test system: ACHN
[5] = test system: BT-549
[6] = test system: CAKI-1
[7] = test system: COLO 205
[8] = test system: EKVX
[9] = test system: HCC 2998
[10] = test system: HCT-116
[11] = test system: HCT-15
[12] = test system: HL-60
[13] = test system: HOP-62
[14] = test system: HOP-92
[15] = test system: HT-29
[16] = test system: Hs-578T
[17] = test system: IGROV-1
[18] = test system: K562
[19] = test system: KM12
[20] = test system: LOX IMVI
[21] = test system: M14
[22] = test system: MCF7
[23] = test system: MDA-MB-231
[24] = test system: MDA-MB-435
[25] = test system: MDA-N
[26] = test system: MOLT-4
[27] = test system: Malme-3M
[28] = test system: NCI-H226
[29] = test system: NCI-H23
[30] = test system: NCI-H460
[31] = test system: NCI-H522
[32] = test system: NCI/ADR-RES
[33] = test system: OVCAR-4
[34] = test system: OVCAR-5
[35] = test system: OVCAR-8
[36] = test system: RPMI-8226
[37] = test system: RXF 393
[38] = test system: SF-268
[39] = test system: SF-295
[40] = test system: SF-539
[41] = test system: SK-MEL-28
[42] = test system: SK-MEL-2
[43] = test system: SK-MEL-5
[44] = test system: SK-OV-3
[45] = test system: SN12C
[46] = test system: SNB-19
[47] = test system: SNB-75
[48] = test system: SR
[49] = test system: SW-620
[50] = test system: T47D
[51] = test system: TK-10
[52] = test system: U-251
[53] = test system: UACC-257
[54] = test system: UACC-62
[55] = test system: UO-31

COC(=O)C1=C(O)C(C(=O)OC)[C@]2(O)[C@H](C(=O)OC)[C@H]1C[C@@H](c1cccc(OC)c1)[C@H]2C(=O)OC (stereo not given in full)
GI50 [1]: 20.7 µM (inactive)
GI50 [2]: 21.4 µM (inactive)
GI50 [3]: 23.6 µM (inactive)
GI50 [4]: 20.4 µM (inactive)
GI50 [5]: 30.6 µM (inactive)
GI50 [6]: 22.4 µM (inactive)
GI50 [7]: 46.1 µM (inactive)
GI50 [8]: 29.5 µM (inactive)
GI50 [9]: 20.5 µM (inactive)
GI50 [10]: 22.2 µM (inactive)
GI50 [11]: 26.3 µM
GI50 [12]: 0.207 µM (active)
GI50 [13]: 31 µM (inactive)
GI50 [14]: 47 µM (inactive)
GI50 [15]: 34.9 µM (inactive)
GI50 [16]: 18.7 µM (inactive)
GI50 [17]: 39 µM (inactive)
GI50 [18]: 28.4 µM (inactive)
GI50 [19]: 27.7 µM (inactive)
GI50 [20]: 36.5 µM (inactive)
GI50 [21]: 29.7 µM (inactive)
GI50 [22]: 23.4 µM (inactive)
GI50 [23]: 27.2 µM (inactive)
GI50 [24]: 17.5 µM (inactive)
GI50 [25]: 15.6 µM (inactive)
GI50 [26]: 20.4 µM (inactive)
GI50 [27]: 24.5 µM (inactive)
GI50 [28]: 28.8 µM (inactive)
GI50 [29]: 30.4 µM (inactive)
GI50 [30]: 22.2 µM (inactive)
GI50 [31]: 6.1 µM (inactive)
GI50 [32]: 29.4 µM (inactive)
GI50 [33]: 29 µM (inactive)
GI50 [34]: 24.9 µM (inactive)
GI50 [35]: 31.6 µM (inactive)
GI50 [36]: 19.4 µM (inactive)
GI50 [37]: 18.8 µM (inactive)
GI50 [38]: 26.1 µM (inactive)
GI50 [39]: 35.8 µM (inactive)
GI50 [40]: 32.3 µM (inactive)
GI50 [41]: 37.6 µM (inactive)
GI50 [42]: 17.7 µM (inactive)
GI50 [43]: 23.5 µM (inactive)
GI50 [44]: 28.2 µM (inactive)
GI50 [45]: 22.9 µM (inactive)
GI50 [46]: 25.9 µM (inactive)
GI50 [47]: 27.5 µM (inactive)
GI50 [48]: 21.9 µM (inactive)
GI50 [49]: 21.5 µM (inactive)
GI50 [50]: 30.5 µM (inactive)
GI50 [51]: 34 µM (inactive)
GI50 [52]: 24.2 µM (inactive)
GI50 [53]: 37.7 µM (inactive)
GI50 [54]: 16.9 µM (inactive)
GI50 [55]: 13.9 µM (inactive)
